Results on eight compounds are retold here after paper PMC2959027, “Expression and function of human hemokinin-1 in human and guinea pig airways” (Respiratory Research, 2010).

Holding throughout (format): cell-based
Test [1] relates to human bronchi. Put plainly: Effect of NK1, NK2 or NK3 receptor antagonists on peptide-induced contraction of human isolated bronchi. The note with it: phosphoramidon 10^-6 M; for effect of antagonist on contraction by cumulative additions of hHK-1 / response to a single addition of 10^-6 M hHK-1 in the presence of antagonist / effect of antagonist on the response to [Sar^9,Met(O2)^11] SP (10^-6 M), single addition: antagonist 10^-7 M; for effect of antagonist on contraction by cumulative additions of hHK-1: n = 5-12; for response to a single addition of 10^-6 M hHK-1 in the presence of antagonist: % of ACh 3 mM, control 42 ± 4%, not significant, mean ± s.e.m., n = 6-12; for effect of antagonist on the response to [Sar^9,Met(O2)^11] SP (10^-6 M), single addition: n = 6; for effect of the association of SR 140333 and SR 48968 on contraction to a single addition of 10^-6 M hHK-1: both antagonists 10^-7 M together. From the text:
(§1) Human bronchial tissues were removed from 47 patients undergoing surgical resection at Foch Hospital (Suresnes, France) or Val d'or Clinic (Saint Cloud, France) for lung cancer (31 men and 16 women; age = 64 ± 9 years). Just after resection, segments of human bronchi with an inner diameter (ID) of 1 to 3 mm were taken as far as possible from the malignant lesion. Male Hartley guinea pigs (Charles River, L'Arbresle, France) weighing 300 to 350 g were sacrificed by cervical dislocation, and tracheas and proximal bronchi were removed. After the removal of adhering lung parenchyma and connective tissues, rings from human bronchi (5-7 mm long, […]) and guinea pig trachea (3 mm long, 3 mm ID) or proximal airways (3 mm long, 1 mm ID) were prepared. 8 to 24 segments of human bronchi were obtained from each patient, whereas 8 trachea segments and 2 to 3 main bronchi segments were obtained from each guinea pig. For RT-PCR analysis, human bronchi were isolated within 1 hour after resection, immediately disrupted and homogenized in TRIzol reagent (Invitrogen) with a Potter Elvehjem homogenizer, and homogenates were kept frozen at -80°C until mRNA extraction. Experiments with human lung tissues were approved by the Regional Ethics Committee for Biomedical Research and animals were used as recommended by animal care guidelines.
(§2) Human bronchial rings and guinea pig tracheal and bronchial rings were suspended on hooks in 5 mL organ bath containing a modified Krebs-Henseleit solution (NaCl 119, KCl 4.7, CaCl2 2.5, KH2PO4 1.2, NaHCO3 25 and glucose 11.7 mM), maintained at 37°C and oxygenated with 95% O2 and 5% CO2. An initial tension of 2 g was applied to tissues, according to previously described protocols. Changes of tension were measured isometrically with Gould strain gauges (UF1; Piodem, Canterburry, Kent, UK); and were recorded and post-processed with IOX and Datanalyst softwares (Emka Technologies France, Paris). During the initial stabilization period (30 min), tissues were washed every 10 minutes with Krebs-Henseleit solution. Phosphoramidon was used to inhibit enzymatic degradation of tachykinins by NEP [21, 40]. Phosphoramidon (10^-6 M) was added in organ bath with or without NK1-, NK2- or NK3-receptor antagonists (SR 140333, SR 48968 and SR 142801, 10^-7 M) after the first stabilization period. Antagonist concentrations were chosen based on their reported affinities for human tachykinin receptors and on their ability to antagonize HK-1-induced responses at similar concentrations in other models. Tissues were then equilibrated 1 hour and concentration-response curves to tachykinins and related peptides were established by applying cumulative concentrations of peptides at 5 to 10 min intervals in semi-logarithmic increments, or by applying a single concentration of peptide. Only one concentration-response curve to tachykinins was recorded in each strip, and each experiment was performed in duplicate. Maximal response was determined by a final addition of acetylcholine hydrochloride (ACh, 3 mM). Contractile responses to tachykinins and related compounds were expressed as percentage of that induced by ACh. The pD2 (defined as the negative log of the molar drug concentration that caused 50% of maximal effect) were calculated from the log concentration-effect curves. When the pD2 value was not assessable (maximal effect (Emax) not reached), it was replaced by the -log EC20 (defined as the negative log of the drug concentration that caused 20% of maximal contraction with ACh). All values in the text and in the figures are expressed as arithmetic mean ± standard error of the mean (s.e.m) of duplicate experiments on tissues from the given (n) number of individuals or animals.

In test [2] the test system is guinea pig main bronchi. The test is described as follows: Effect of NK1 or NK2 receptor antagonists on hHK-1-induced contraction of guinea pig main bronchi. The note with it: antagonist 10^-7 M; cumulative additions of hHK-1; phosphoramidon 10^-6 M; n = 5-7. From the text: (§3) Human bronchial tissues were removed from 47 patients undergoing surgical resection at Foch Hospital (Suresnes, France) or Val d'or Clinic (Saint Cloud, France) for lung cancer (31 men and 16 women; age = 64 ± 9 years). Just after resection, segments of human bronchi with an inner diameter (ID) of 1 to 3 mm were taken as far as possible from the malignant lesion. Male Hartley guinea pigs (Charles River, L'Arbresle, France) weighing 300 to 350 g were sacrificed by cervical dislocation, and tracheas and proximal bronchi were removed. […]
(§4) Human bronchial rings and guinea pig tracheal and bronchial rings were suspended on hooks in 5 mL organ bath containing a modified Krebs-Henseleit solution (NaCl 119, KCl 4.7, CaCl2 2.5, KH2PO4 1.2, NaHCO3 25 and glucose 11.7 mM), maintained at 37°C and oxygenated with 95% O2 and 5% CO2. […] Changes of tension were measured isometrically with Gould strain gauges (UF1; Piodem, Canterburry, Kent, UK); and were recorded and post-processed with IOX and Datanalyst softwares (Emka Technologies France, Paris). […] Only one concentration-response curve to tachykinins was recorded in each strip, and each experiment was performed in duplicate. Maximal response was determined by a final addition of acetylcholine hydrochloride (ACh, 3 mM). Contractile responses to tachykinins and related compounds were expressed as percentage of that induced by ACh. […]

Test [3] has as its system guinea-pig trachea. The test is described as follows: Effect of NK1 or NK2 receptor antagonists on hHK-1-induced contraction of guinea pig trachea. Particulars: for effect of antagonist on contractions induced by hHK-1, guinea-pig trachea: antagonist 10^-7 M, cumulative additions of hHK-1, phosphoramidon 10^-6 M.
From the text: as §3, with “removed. After the removal of adhering lung parenchyma and connective tissues, rings from human bronchi (5-7 mm long, […]) and guinea pig trachea (3 mm long, 3 mm ID) or proximal airways (3 mm long, 1 mm ID) were prepared. 8 to 24 segments of human bronchi were obtained from each patient, whereas 8 trachea segments and 2 to 3 main bronchi segments were obtained from each guinea pig.” for “removed.”
as §4, with “ACh. The pD2 (defined as the negative log of the molar drug concentration that caused 50% of maximal effect) were calculated from the log concentration-effect curves.” for “ACh.”

In test [4] the test system is human bronchi. Put plainly: Cross-desensitization of NK1 receptors after consecutive applications of hHK-1 and [Sar^9,Met(O2)^11] SP on human bronchi. The note with it: phosphoramidon 10^-6 M, n = 5. On the procedure:
as §2

Test [5] has as its system guinea-pig trachea. Put plainly: Contraction of guinea pig trachea by tachykinin peptides (organ bath). Particulars: cumulative additions, phosphoramidon 10^-6 M; for Emax (% of Ach 3 mM) / pD2: guinea-pig trachea, mean ± s.e.m. for n determinations (n = 6-12); for contractile effect on guinea-pig trachea: EKA/B 10^-8 M-10^-6 M.
From the text: as §1, §2

The test system of test [6] is human bronchi. Put plainly: Contraction of human isolated bronchi by tachykinin peptides (organ bath, isometric tension). Particulars: phosphoramidon 10^-6 M.
From the text: as §1, §2

For test [7], the system named is guinea pig main bronchi. The test is described as follows: Contraction of guinea pig main bronchi by tachykinin peptides (organ bath). The note with it: cumulative additions; phosphoramidon 10^-6 M; n = 6-7.
From the text: as §3, §4

Where [8] appears, read: 10^-7 M, % of ACh 3 mM, mean ± s.e.m.

No end group written: not given here.

In the case of `CC(=O)N(C)C1(c2ccccc2)CCN(CCCC2(c3ccc(Cl)c(Cl)c3)CCCN(C(=O)c3ccccc3)C2)CC1` (stereo in doubt) [SR 142801, (S)-(N)-(1-(3-(1-benzoyl-3-(3,4-dichlorophenyl)piperidin-3-yl)propyl)-4-phenylpiperidin-4-yl)-N-methylacetamide], the “effect of antagonist on contraction by cumulative additions of hHK-1” value (from here on “effect of antagonist on contraction … of hHK-1”) in the test on human bronchi [1] is on record as “did not alter”.

As for `CC(=O)NC1(c2ccccc2)CCN(CC[C@H](CN(C)C(=O)c2ccccc2)c2ccc(Cl)c(Cl)c2)CC1` [SR 48968, (S)-N-methyl-N-[4-acetylamino-4-phenylpiperidino-2-(3,4-dichlorophenyl)butyl]benzamide], in the test with guinea pig main bronchi [2], the “effect of antagonist on contractions induced by hHK-1, guinea pig main bronchi” value is “altered to a lesser extent”. In the test on human bronchi [1], the “response to a single addition of 10^-6 M hHK-1 in the presence of antagonist” value came out at 31 ± 4%; the “effect of antagonist on contraction … of hHK-1” value is reported as “completely abolished”; the “effect of antagonist on the response to [Sar^9,Met(O2)^11] SP (10^-6 M), single addition” value is listed as “unmodified”; the “effect of the association of SR 140333 and SR 48968 on contraction to a single addition of 10^-6 M hHK-1” value is reported as “abolished the smooth muscle contraction”. The “effect of antagonist on contractions induced by hHK-1, guinea-pig trachea” value with guinea-pig trachea [3] is given as “altered to a lesser extent”.

On to `CC(C)Oc1cccc(CC(=O)N2CCC[C@](CC[N+]34CCC(c5ccccc5)(CC3)CC4)(c3ccc(Cl)c(Cl)c3)C2)c1.[Cl-]` [SR 140333, (S)1-(2-[3-(3,4-dichlorophenyl)-1-(3-isopropoxyphenylacetyl)piperidin-3-yl]ethyl)-4-phenyl-1-azoniabicyclo [2.2.2]octane chloride], for which the “effect of antagonist on contractions induced by hHK-1, guinea pig main bronchi” value with guinea pig main bronchi [2] is “abolished”. Moreover, in the test on human bronchi [1], the “response to a single addition of 10^-6 M hHK-1 in the presence of antagonist” value is listed as 31 ± 5%; the “effect of antagonist on contraction … of hHK-1” value was “small but not statistically significant reduction”; the “effect of antagonist on the response to [Sar^9,Met(O2)^11] SP (10^-6 M), single addition” value is listed as “specifically abolished”; the “effect of the association of SR 140333 and SR 48968 on contraction to a single addition of 10^-6 M hHK-1” value is given as “abolished the smooth muscle contraction”. In addition, the “effect on maximal contractions induced by hHK-1, guinea-pig trachea” value with guinea-pig trachea [3] (SR 140333 10^-9 to 10^-7 M, n = 4-11, suggesting non competitive antagonism) was “reduced maximal contractions”. In the test on guinea-pig trachea [3], the “effect of antagonist on contractions induced by hHK-1, guinea-pig trachea” value is “abolished”.

Take “[Sar^9,Met(O2)^11] substance P [[Sar^9,Met(O2)^11] SP]”: in the test with human bronchi [4] (setting [8]), the “contraction, first addition of [Sar^9,Met(O2)^11] SP (followed by a second addition of the same peptide)” value is on record as 33 ± 7% and the “contraction, initial addition of [Sar^9,Met(O2)^11] SP (followed by hHK-1)” value amounted to 32 ± 7%. Moreover, in the test on human bronchi [4] (10^-7 M, % of ACh 3 mM, mean ± s.e.m., p < 0.01 vs first), the “contraction, second addition of [Sar^9,Met(O2)^11] SP after a first addition of [Sar^9,Met(O2)^11] SP” value is recorded as 4 ± 1%. In the test on human bronchi [4] ([Sar^9,Met(O2)^11] SP 10^-7 M after hHK-1 3.10^-7 M), the “response to [Sar^9,Met(O2)^11] SP after a first addition of hHK-1” value is reported as “abolished”. Further, in the test on guinea-pig trachea [5], the “Emax (% of Ach 3 mM)” value is on record as 76 ± 2 % of Ach 3 mM and the pD2 came out at 7.5 ± 0.1. In addition, the “Emax, cumulative additions in the presence of SR 48968” value with human bronchi [6] (NK2 antagonist SR 48968 10^-7 M, inverted U-shaped curve, % of ACh 3 mM, mean ± s.e.m.) came to 13 ± 3%. Also, the “pD2, single additions in the presence of SR 48968” value with human bronchi [6] (NK2 antagonist SR 48968 10^-7 M, non cumulative additions, mean ± s.e.m., hHK-1 n = 5-7, [Sar^9,Met(O2)^11] SP n = 10) came to 8.0 ± 0.4. In addition, the “maximal contraction, single additions in the presence of SR 48968” value with human bronchi [6] (NK2 antagonist SR 48968 10^-7 M, non cumulative additions, sigmoid curve, % of ACh 3 mM, mean ± s.e.m., hHK-1 n = 5-7, [Sar^9,Met(O2)^11] SP n = 10) is reported as 26 ± 7%.

For the compound [β-Ala^8]-NKA (4-10), in the test on guinea-pig trachea [5], the “Emax (% of Ach 3 mM)” value is on record as 80 ± 5 % of Ach 3 mM and the pD2 amounted to 8.3 ± 0.6.

endokinin A/B [EKA/B]: the “-log EC20” value with human bronchi [6] (negative log of concentration causing 20% of maximal contraction with ACh, cumulative additions, mean ± s.e.m., n = 3) came to 7.2 ± 0.3. Moreover, in the test on guinea pig main bronchi [7], the “potency on guinea-pig isolated bronchi compared with SP and [Sar^9,Met(O2)^11] SP” value is recorded as “less potent”.

For the compound “endokinin C (KKAYQLEHTFQGLL; ends and bridges not checked; UniProt Q86UU9 82-95, looked up) [EKC, peptide derived from TAC4, custom synthesized]”, the “contractile effect on guinea-pig trachea” value in the test on guinea-pig trachea [5] is “without effect”. Further, the “contractile activity on human isolated bronchi” value in the test on human bronchi [6] (cumulative additions, n = 3) is reported as “devoid of any contractile activity”.

For the compound endokinin D [EKD], the “contractile effect on guinea-pig trachea” value with guinea-pig trachea [5] is given as “without effect”. The “contractile activity on human isolated bronchi” value with human bronchi [6] (cumulative additions, n = 3) is “devoid of any contractile activity”.
